According to article PMC12148441, “The mechanism of peptidoglycan O-acetylation in Gram-negative bacteria typifies bacterial MBOAT-SGNH acyltransferases [drawing 1]” (The Journal of Biological Chemistry, 2025):

Target: T1, NgPatBΔ100 (Neisseria gonorrhoeae, UniProt Q5F966)
T1 construct: gene NGO_0533; SGNH domain (Δ100, N-terminal truncation), E. coli BL21(DE3), His-SUMO tag removed by Ulp1; catalytic Ser133, His305, Asp302
Experiment: transacetylation of chitopentaose
Assay type: biochemical
Details: acetyl donor (1 mM acetyl-amino acids); chitopentaose acceptor; 50 mM sodium phosphate pH 7.0

T1 sequence (Q5F966 entry or part of it, stated change not applied): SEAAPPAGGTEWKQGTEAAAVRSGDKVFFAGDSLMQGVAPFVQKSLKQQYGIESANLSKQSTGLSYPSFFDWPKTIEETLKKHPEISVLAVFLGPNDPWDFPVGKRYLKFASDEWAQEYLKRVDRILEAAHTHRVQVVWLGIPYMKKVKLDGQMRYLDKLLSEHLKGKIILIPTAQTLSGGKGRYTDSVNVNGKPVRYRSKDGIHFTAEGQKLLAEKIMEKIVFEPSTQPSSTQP

CC(=O)Oc1ccc(C[C@H](N)C(=O)O)cc1 [O-acetyl-Tyr]
transacetylation of chitopentaose: O-acetyl-Tyr, but not O-acetyl-Ser, were sufficient for transacetylation of chitopentaose by NgPatB
